Reference: patent US8691818B2, “Cyclic triazo and diazo sodium channel blockers” (University Of Greenwich, priority 2008, dated 2014)
Where two headings read alike, the source gives them in different places.

Columns and labels:
[1] = system: sodium channel; experiment: [14C]guanidine flux: veratrine-evoked uptake of [14C]guanidine into rat forebrain synaptosomes (primary sodium channel assay); assay type: biochemical; conditions: 30° for 2½ min
Outline: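 Synaptosomal fraction from male Wistar rat forebrain (without cerebellum/medulla), 20-25 mg wet weight/ml. Veratrine-evoked [14C]guanidine uptake at 30° for 2½ min across a compound concentration range; IC50 from concentration-effect curves, mean±sem.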

[2] = target: T1, DiHydroFolate Reductase (DHFR) (Rattus norvegicus, UniProt Q920D2); experiment: Inhibition of binding of [3H]methotrexate to rat liver homogenate supernatant; conditions: for inhibition at 125 µM: read-out: [3H]mtx binding (% inhibition @ 125 μM)
T1 construct: from tissue; host or cells: rat liver homogenate supernatant
T1 sequence (Q920D2 1-187): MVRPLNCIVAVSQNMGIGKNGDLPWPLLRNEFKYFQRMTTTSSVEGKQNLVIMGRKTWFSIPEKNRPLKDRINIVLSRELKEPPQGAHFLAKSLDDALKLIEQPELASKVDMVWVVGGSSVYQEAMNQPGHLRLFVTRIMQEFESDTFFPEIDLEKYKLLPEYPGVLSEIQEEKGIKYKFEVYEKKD
Outline: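 Displacement of [3H]methotrexate binding to rat liver homogenate supernatant, prepared at 4 °C in pH 6.0 phosphate buffer with 15 mM dithiothreitol. Values are mean±sem over the number of experiments shown.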

[3] = Rat microsome stability; assay type: in vitro ADME; conditions: 1 μM, rat liver microsomes
Protocol: Compounds were sent to BioFocus for measurement of their stability@1 μM concentration following incubation with rat liver microsomes for 40 minutes@37°.

[4] = target: T2, hERG (Homo sapiens, UniProt Q12809); experiment: hERG: inhibition of binding of [3H]astemizole to HEK-293 cells expressing human recombinant hERG; conditions: for inhibition at 10 µM: human, probe [3H]astemizole
[5] = target: T2, hERG
[6] = system: 0.4 mm slices of rat hippocampus; experiment: tissue or blood; assay type: cell-based; conditions: for Emax at 30 µM: Rattus norvegicus, read-out: % protection (v 1 μM TTX) (mean ± sem) (no. of expt's)
[7] = system: L-Type Calcium Channels; experiment: L-type calcium channels: inhibition of binding of [3H]nitrendipine to rat cerebral cortex membranes; conditions: for L-type Ca2+ % inhibition @ 10 μM: [3H]nitrendipine binding; for IC50: read-out: L-type Ca2+ IC50 (μM) (extrapolated from 10 μM inh'n), extrapolated assuming binding slope 1.0
[8] = target: T2, hERG; experiment: in vitro
[9] = system: Sodium Channel, Site 2; assay type: binding, Wistar Rat; conditions: read-out: [3H]BTX-B binding Extrapolated IC50
[10] = 30 μM, iodoacetate 400 μM insult, slice ATP

T2 sequence (Q12809 whole entry): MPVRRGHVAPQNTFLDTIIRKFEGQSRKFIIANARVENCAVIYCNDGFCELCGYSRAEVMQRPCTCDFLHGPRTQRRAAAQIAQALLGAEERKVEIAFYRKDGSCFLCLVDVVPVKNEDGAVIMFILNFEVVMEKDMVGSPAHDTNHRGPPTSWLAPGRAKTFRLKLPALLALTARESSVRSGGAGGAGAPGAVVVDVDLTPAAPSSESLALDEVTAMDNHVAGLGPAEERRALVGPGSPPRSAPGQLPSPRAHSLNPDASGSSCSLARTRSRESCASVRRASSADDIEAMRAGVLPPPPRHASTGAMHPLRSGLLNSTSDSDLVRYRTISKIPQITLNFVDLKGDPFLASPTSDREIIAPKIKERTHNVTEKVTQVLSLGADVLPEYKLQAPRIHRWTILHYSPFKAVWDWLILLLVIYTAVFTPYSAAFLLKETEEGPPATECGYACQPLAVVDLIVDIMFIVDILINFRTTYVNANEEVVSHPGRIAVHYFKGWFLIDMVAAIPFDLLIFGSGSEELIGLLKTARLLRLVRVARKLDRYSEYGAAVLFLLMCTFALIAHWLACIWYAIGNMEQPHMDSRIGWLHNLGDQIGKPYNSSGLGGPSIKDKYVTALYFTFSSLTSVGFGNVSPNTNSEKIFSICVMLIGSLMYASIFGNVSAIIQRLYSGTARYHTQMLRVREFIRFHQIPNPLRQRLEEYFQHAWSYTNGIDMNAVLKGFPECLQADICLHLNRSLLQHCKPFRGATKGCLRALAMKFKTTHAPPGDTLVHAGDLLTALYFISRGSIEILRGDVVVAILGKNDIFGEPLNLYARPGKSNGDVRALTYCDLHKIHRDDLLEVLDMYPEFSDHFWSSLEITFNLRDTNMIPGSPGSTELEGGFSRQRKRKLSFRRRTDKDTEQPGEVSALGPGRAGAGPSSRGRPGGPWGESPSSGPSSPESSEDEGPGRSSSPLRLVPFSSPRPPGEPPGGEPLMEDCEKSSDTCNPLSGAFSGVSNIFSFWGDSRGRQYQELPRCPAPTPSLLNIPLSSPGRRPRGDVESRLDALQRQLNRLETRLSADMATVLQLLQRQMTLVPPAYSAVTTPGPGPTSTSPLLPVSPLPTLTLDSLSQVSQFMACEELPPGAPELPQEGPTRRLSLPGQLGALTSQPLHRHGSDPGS

Molecule	IC50 [1] [µM]	inhibition at 125 µM ([2]; 125 μM) [%]	Microsome stability % metabolized (40 min incubation 37°) [3] [%]	IC50 [4] [µM]	inhibition at 10 µM [4] [%]	Emax at 30 µM [6, 10] [%]	L-type Ca2+ % inhibition @ 10 μM [7] [%]	IC50 [7] [µM]	further results
Cn1nc(-c2cc(C(F)(F)F)cc(C(F)(F)F)c2)c(N)nc1=N [CEN-99, 5(3)-Amino-6-[3,5-(bis-trifluoromethyl)phenyl]-2,3(2,5)-dihydro-3(5)-imino-2-methyl-1,2,4-triazine methanesulfonate]	135	-1	0.0	34	23	–	–	–	–
6-Adamantyl-3,5-diamino-1,2,4-triazine [CEN-83]	40.8	–	–	–	–	–	–	–	[3H]mtx binding (% inhibition @ 125 μM) ([2]; 125 μM): −5%; IC50 [5]: 52 µM
NC1=N[C@H](O)[C@H]2[C@H]3O[C@]4(O)O[C@@H]([C@@H](O)[C@@]2(N1)[C@@H]4O)[C@]3(O)CO [TTX, tetrodotoxin, reference compound]	–	–	–	–	–	–	–	–	% protection (v 1 μM TTX) [6]: 100%
CCOc1ccc2ccccc2c1-c1nnc(N)nc1N [CEN-110]	135	-23	61.5	> 200	-12	–	–	–	melting point: 178 to 180 °C
Nc1nnc(C2(c3ccc(Cl)cc3)CCC2)c(N)n1 [CEN-152, 3,5-Diamino-6-[1-(4-chlorophenyl)-1-cyclobuty]-1,2,4-triazine]	479	1	–	–	–	-10	–	–	–
Nc1nnc(-c2cc(C(F)(F)F)cc(C(F)(F)F)c2)c(N)n1 [CEN-92, 3,5-Diamino-6-(3,5-bistrifluoromethylphenyl)-1,2,4-triazine]	–	–	0.0	> 200	4	32	3	> 190	IC50 ([1]; listed as 92): 144 µM; [3H]mtx binding (% inhibition @ 125 μM) ([2]; 125 μM, listed as 92, 125 µM): 15%
O=C1NC(=O)C(c2ccccc2)(c2ccccc2)N1 [DPH, reference compound]	–	–	–	–	–	–	–	–	% protection (v 1 μM TTX) (mean ± sem) (no. of expt's) [6, 10]: 48%
Nc1cnc(-c2cc(Cl)cc(Cl)c2Cl)c(N)n1 [CEN-86, 2,6-Diamino-3-(2,3,5-trichlorophenyl)pyrazine]	14.1	-5	–	> 200	1	98	9	101	–
Nc1nnc2c(n1)-c1cccc3cccc-2c13 [CEN-155]	34	–	–	35	–	–	–	–	inhibition at 125 µM [2]: -6%; inhibition at 10 µM [8]: 22%
Nc1nnc(-c2ccc3ccccc3c2)c(N)n1 [CEN-73, 3,5-Diamino-6-(2-naphthyl)-1,2,4-triazine]	81.2	5	62.5	> 200	3	–	8	115	melting point: 215 to 216 °C
CN1CCN(c2ncc(-c3cc(Cl)cc(Cl)c3Cl)c(N)n2)CC1 [Sipatrigine, reference compound]	–	–	–	–	–	58	–	–	–
Nc1ncc(-c2cc(Cl)cc(Cl)c2Cl)c(N)n1 [CEN-47, 2,4-Diamino-5-(2,3,5-trichlorophenyl)pyrimidine, reference compound]	13.2	–	–	35	22	98	–	–	–
Nc1nnc(C(c2ccccc2)C2CCCC2)c(N)n1 (stereo not shown) [CEN-163, 3,5-Diamino-6-(1-cyclopentyl-1-phenylmethy)-1,2,4-triazine]	8	13	–	81	11	56	–	–	–
Nc1nnc(-c2cccc(Oc3ccccc3)c2)c(N)n1 [CEN-84, 3,5-Diamino-6-(3-phenoxphenyl)-1,2,4-triazine]	43.7	-4	33.0	101	9	–	7	133	melting point: 152 to 153 °C
Nc1nnc(-c2sc(Cl)c(Cl)c2Cl)c(N)n1 [CEN-79, 3,5-Diamino-6-[2-(3,4,5 trichlorothienyl)]-1,2,4-triazine]	209	-1	0.0	> 200	3	–	17	48.8	melting point: 263 to 265 °C
N=c1nc(N)c(-c2ccccc2Oc2ccccc2)nn1CC(F)(F)F [CEN-98, 5(3)-Amino-6-(2-phenoxyphenyl)-2,3(2,5)-dihydro-3(5)-imino-2-(1,1,1-trifluoroethyl)-1,2,4-triazine]	8.9	41	6.0	46	18	11	−18	> 190	–
N=c1nc(N)c(-c2cccc(Cl)c2Cl)nn1CC(F)(F)F [CEN-67, 5(3)-Amino-6-(2,3-dichlorophenyl)-2,3(2,5)-dihydro-3(5)-imino-2-(2,2,2-trifluoroethyl)-1,2,4-triazine]	4.3	11	0.5	57	15	3	−16	> 190	–
Nc1nnc(-c2ccccc2OCc2ccccc2)c(N)n1 [CEN-160, 3,5-Diamino-6-(2-Benzyloxyphenyl)-1,2,4-triazine]	295	-11	–	> 200	0	0	–	–	–
Nc1nnc(-c2cccc(Cl)c2Cl)c(N)n1 [CEN-1, Lamotrigine, reference compound]	219	–	0.5	–	–	41	–	–	IC50 [9]: > 200 µM
Nc1nnc(C(c2ccccc2)c2ccccc2)c(N)n1 [CEN-130, 3,5-Diamino-6-(diphenylmethy)-1,2,4-triazine]	20.4	2	–	> 200	-2	39	–	–	–
N=c1nc(N)c(-c2cc(Cl)cc(Cl)c2Cl)nn1CC(F)F [CEN-85, 5(3)-Amino-6-(2,3,5-trichlorophenyl)-2,3(2,5)-dihydro-3(5)-imino-2-(2,2-difluoroethyl)-1,2,4-triazine]	3.6	-5	–	16	39	–	−15	> 190	melting point: 168 to 170 °C (dec.)
Nc1nnc(-c2cc(OCC(F)(F)F)ccc2OCC(F)(F)F)c(N)n1 [CEN-140, 3,5-Diamino-6-[2,5-bis(2,2,2-trifluoroethoxy)phenyl]-1,2,4-triazine]	229	3	–	–	–	-11	–	–	–
